# According to paper PMC12436592 (Nature Communications, 2025):
# Several values for one entry are separate records, joined by “and”; a condition that tells them apart may be missing. Equal values may be shown once.
# Target: T1, hP2X7R (Homo sapiens, UniProt Q99572)
# T1 sequence (Q99572 1-595): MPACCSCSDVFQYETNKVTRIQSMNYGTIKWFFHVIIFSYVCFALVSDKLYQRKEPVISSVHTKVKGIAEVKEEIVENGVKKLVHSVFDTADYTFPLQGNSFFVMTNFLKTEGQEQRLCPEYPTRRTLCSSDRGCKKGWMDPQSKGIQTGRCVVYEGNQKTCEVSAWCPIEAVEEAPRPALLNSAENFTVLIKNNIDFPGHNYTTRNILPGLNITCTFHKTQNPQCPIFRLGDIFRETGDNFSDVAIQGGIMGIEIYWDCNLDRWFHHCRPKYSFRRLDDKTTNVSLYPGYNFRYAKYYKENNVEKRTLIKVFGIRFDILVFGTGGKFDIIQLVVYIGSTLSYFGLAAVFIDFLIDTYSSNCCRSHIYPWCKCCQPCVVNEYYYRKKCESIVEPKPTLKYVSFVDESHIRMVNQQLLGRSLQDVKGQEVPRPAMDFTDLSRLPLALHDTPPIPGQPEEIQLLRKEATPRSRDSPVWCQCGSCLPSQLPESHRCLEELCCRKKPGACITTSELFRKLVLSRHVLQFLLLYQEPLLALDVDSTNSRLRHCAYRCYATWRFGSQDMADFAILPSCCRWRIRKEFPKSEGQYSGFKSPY
# Experiment: TEVC determination of antagonist binding kinetics in Xenopus oocytes
# Assay type: cell-based
# Parameters: expressed in transfected cells; host or cells: Xenopus laevis oocytes injected with capped cRNA (modified pUC19 vector, T7)
# Settings: single replicates
# Method: Xenopus laevis frogs were from Nasco International (Fort Atkinson, WI) and kept at the Core Facility Animal Models (CAM) of the Biomedical Center (BMC) of LMU Munich, Germany (Az:4.3.2–5682/LMU/BMC/CAM) in accordance with the EU Animal Welfare Act. Ovaries were surgically extracted (ROB_54-011-AZ 2532.Vet_02-23-166), treated with collagenase (Nordmark, Uetersen, Germany 1.0–1.5 mg/mL, ≥2 at RT) and defolliculated (15-min treatment in Ca^2+-free oocyte Ringer (90 mM NaCl, 1 mM KCl, 2 mM MgCl2, 5 mM HEPES), respectively. 50 nL of cRNA (0.5 µg/µL) were injected using a Nanoject II injector (Science Products, Drummond) and oocytes were kept in ND96 (96 mM NaCl, 2 mM KCl, 1 mM MgCl2, 1 mM CaCl2, 5 mM HEPES, pH 7.4–7.5). The plasmid containing the hP2X7R was linearized with NotI-HF (NEB) and purified with the MinElute Reaction Cleanup Kit (Qiagen, Hilden, Germany). Capped cRNA was synthesized using the mMESSAGE mMACHINE™ T7 Transcription Kit (ThermoFisher Scientific, Schwerte, Germany) and dissolved in nuclease-free water (500 ng/µL). Injected oocytes were allowed to express for at least 36 hours.
# Two-electrode voltage clamp recordings were performed at room temperature and a holding potential of −70 mV using a Turbo Tec-05X Amplifier (npi electronic, Tamm, Germany), a magnetic valve system, and CellWorks E 5.5.1 software. Currents were filtered at 1 kHz and digitized at 200 Hz. Electrode resistances were below 1.2 MΩ. […] Recordings were performed in ND96.
# After obtaining reproducible agonist-evoked responses, solutions were switched to antagonist-containing recording solutions with and without ATP to determine association rates. Responses following antagonist application were normalized to the preceding, stabilized agonist responses. Dissociation was determined in 1- or 2 min intervals when currents were reduced to <10%. Association curves were fit to the data by the equation % Response = (100-Plateau)*exp(-kobs*Time) + Plateau, where Plateau indicates the response at equilibrium and kobs the experimentally determined on-rate. All data were analyzed using Prism software (GraphPad Software, Inc., Version 8.3.0, San Diego, CA) and are presented as means ± SD from at least three oocytes. […] The final concentration of DMSO in the recording solution was ≤1%.
# Supplementary Fig. 10: Kinetics of ligands binding to the hP2X7R measured by TEVC. (A) […]
# All data represented as mean ± S.D. with n=3, 7, 7, and 7 f or the experiments performed at 3 nM, 10 nM, 30 nM, and 100 nM […]
# (B) Representative current traces for t he activation
# (C) On- and off-r at e constants and Ki
# Observed on- r at es kobs were determined by fitting the data (Fig. 4H, Supplementary Fig. 10A) to the function: % response = (100- Plateau)*exp(-kobs*time)+Plateau and plotted against the antagonist concentrations to obtain koff according to k obs=kon*F+koff. Assuming a (simplified) 1:1 binding model, of f-r at e constant koff and Ki values were estimated using the previous formulas as well as Ki=koff/kon. […]
# determined by Ca2+ imaging (18 nM, Fig. 3B ) and the binding equilibrium reached at each […]
# values of UB-MBX-46 c annot reflect an accurate value due to the nearly negligible dissociation on the timescale of the experiment. If k off was estimated based on the IC50 value (IC50 = koff/kon panel D), a more accurate koff value can be obtained. Numbers in square brackets are 95% Confidence Intervals. *values obtained from an extrapolated dose inhibition curve from D . (D) The plateau values, representing the binding equilibrium, were used to generate dose inhibition
compound,measurement,setting,value
O=C(NNc1ccccc1Cl)C12CC3CC(CC(C3)C1)C2 [UB-MALT-P30],"on-rate to hP2X7R, Response [%]","3 nM, time 2 min",96.4% and 100% and 92.9%
same,"on-rate to hP2X7R, Response [%]","3 nM, time 4 min",96.4% and 97.5% and 92.9%
same,"on-rate to hP2X7R, Response [%]","3 nM, time 6 min",96.4% and 97.5% and 92.9%
same,"on-rate to hP2X7R, Response [%]","10 nM, time 2 min",93.8% and 78.8% and 87.9% and 77.9% and 84.1% and 80.6% and 76.1%
same,"on-rate to hP2X7R, Response [%]","10 nM, time 4 min",83.3% and 71.2% and 77.8% and 75.3% and 77.2% and 75% and 67.4%
same,"on-rate to hP2X7R, Response [%]","10 nM, time 6 min",77.1% and 65.4% and 72.7% (2×) and 74% and 66.7% and 65.2%
same,"on-rate to hP2X7R, Response [%]","10 nM, time 8 min",58.3% and 61.5% and 69.7% and 72.7% (2×) and 66.7% and 63%
same,"on-rate to hP2X7R, Response [%]","10 nM, time 10 min",45.8% and 57.7% and 67.7% and 72.7% (2×) and 66.7% and 65.2%
same,"on-rate to hP2X7R, Response [%]","10 nM, time 12 min",39.6% and 55.8% and 65.7% and 72.7% (2×) and 66.7% and 65.2%
same,"on-rate to hP2X7R, Response [%]","30 nM, time 2 min",54.3% and 59.3% and 51.2% and 37.5% and 42.9% and 45.7% and 46.9%
same,"on-rate to hP2X7R, Response [%]","30 nM, time 4 min",45.7% and 44.4% and 19.5% and 33.3% (2×) and 34.3%
same,"on-rate to hP2X7R, Response [%]","30 nM, time 6 min",42.4% and 37% and 17.1% and 20.8% and 28.6% and 25.7% and 28.3%
same,"on-rate to hP2X7R, Response [%]","30 nM, time 8 min",40.2% and 33.3% and 14.6% and 20.8% and 23.8% and 22.9% and 22.4%
same,"on-rate to hP2X7R, Response [%]","30 nM, time 10 min",39.1% and 33.3% and 9.8% and 29.2% and 23.8% and 22.9% and 22.4%
same,"on-rate to hP2X7R, Response [%]","100 nM, time 2 min",20% and 4.2% and 3.2% and 8.2% and 20.5% and 17.6% and 21.1%
same,"on-rate to hP2X7R, Response [%]","100 nM, time 4 min",6.7%
same,"on-rate to hP2X7R, Response [%]","100 nM, time 6 min",6.7% and 1.4% and 0% and 2% and 10.8% and 10.6% and 10.5%
